Patent US20150148405A1, “Expression Construct for a Lin28-Resistant Let-7 Precursor MicroRNA” (THE JOHNS HOPKINS UNIVERSITY, priority 2012, published 2015)
Numbered stars: 1 amine (or outer) side, 2 acyl side, 3 side chain; on linkers, the order of the positions; unused ones are H or OH. Bridge positions count the residues as written; N and C are the ends. Square brackets hold non-standard residues; d marks the D form. Peptide text beside a SMILES is read from it. I, II: the chains in the order shown. Actinocin(9to1) = Cc1c2oc3c(C)ccc(C(=O)[*:1])c3nc-2c(C(=O)[*:2])c(N)c1=O; NMeV = CN[C@H](C(=O)O)C(C)C; Sar = CNCC(=O)O

How the values were obtained:
Format in all cases: cell-based, mouse
BDNF targets = test: Immunoblotting for BDNF target proteins with or without Actinomycin-D; details: Actinomycin-D 0.5 μg/mL added 10 min before stimulation
Protocol: […] Bath application of BDNF (100 ng/mL) was for designated periods (5 min-2 hours). The cultures were washed 3 times and harvested on ice with lysis buffer (50 mM Hepes, 150 mM NaCl, 10% Glycerol, 1 mM EDTA, 1% Triton-X-100, 0.2% SDS) plus freshly added protease inhibitor cocktail (Roche) and PMSF. Protein concentration was determined by Bradford Assay. If required, lysates were treated with Lambda Protein Phosphatase according to manufacturer's instructions (New England Biolabs P0753S). Equal amounts of lysate protein were resolved on SDS-PAGE gels, and electrotransferred to PVDF membrane. Membrane was blocked with 5% milk in Tris-buffered saline tween 20 (TBST) and probed with primary antibodies in 5% milk or BSA in TBST: GluR1 (Millipore AB1504), CaMKIIα (Zymed 13-7300), Homer2 (gift of P. Worley), KCC2 (Upstate 07-432), Kv1.1 (NeuroMab 73-007), β-tubulin (U. Iowa DSHB, clone E-7), GAPDH (gift of S. Snyder), GW182 (18033 gift of M. Fritzler or Abcam ab84403), Dcp1a (gift of J. Lykke-Andersen or NeuroMab clone3G4), phospho-ERK ½ (Sigma M 7802), Dicer (NeuroMab clone N167/7), TRBP (Abeam ab72110), Lin28a (Cell Signaling A177), Lin28b (gift of E. Moss or Cell Signaling 5422), Arc (SantaCruz 17839), mCherry (Clontech 632496), GFP (NeuroMab N86/8).

cultured neurons = test: 35S-labelling total protein synthesis; details: mock or BDNF 100 ng/mL 2 hours, Actinomycin-D
Protocol: Cultured neurons were pre-incubated in media containing reduced-serum and Actinomycin-D as previously described, followed by washing and incubation for 10 min with methionine- and cysteine-free DMEM (Mediatech, Inc.), and ^35S labeling in the same DMEM with the addition of ^355-methionine/cysteine (^35S Met/Cys EasyTag Mix, Perkin Elmer) to a final concentration of […]. Mock- or BDNF stimulation was for 2 hours. Cells were washed and lysed with lysis buffer (see immunoblotting). Lysates were centrifuged and collected supernatants subjected to Bradford assay. To assess newly synthesized proteins, 200-500 μg of lysates proteins were precipitated with 10% trichloroacetic acid (TCA) for 1 hour on ice in the presence of 0.5% deoxycholate (DOC) to remove interfering phenol red. After centrifugation, protein pellets were washed with ice-cold 95% ethanol, solubilized in denaturing buffer ([…] Tris pH 8.3, 5 mM EDTA, 0.05% SDS, 6M urea), and subjected to liquid scintillation counting (Econofluor, New England Nuclear, Inc.). ^35S Disintegration per minute (DPM) was used to quantitate protein synthesis after subtraction of background readings.

[1] = tested on: hippocampal pyramidal neurons; test: Live cell imaging of P-body numbers (GFP-Dcp1a); details: 15 μM
Protocol: Dissociated hippocampal cultures were prepared from postnatal day 0 (P0) mice as previously described (Meffert et al., 2003). Knockdown was by lentiviral-mediated delivery of shRNA to cultures at multiplicity of infection of 5-10, 48 hr before imaging or 4-5 days for GW182. Cultures were preincubated 10-20 min and mock- or BDNF-stimulated (100 ng/mL BDNF) in the presence of Actinomycin-D (0.5 μg/mL), unless indicated otherwise.
Confocal images of hippocampal pyramidal neurons were acquired on either a Yokogawa spinning disk (Zeiss) at 37° C. (live cells), or a LSM5 Pascal system (fixed cells). Laser power and exposure time were adjusted to minimize photobleaching and avoid saturation. […]
Dissociated hippocampal cultures were prepared from postnatal day 0 (P0) mice as previously described (Meffert et al., 2003) and were maintained in Neurobasal A medium (Gibco, 10888) with B27 Supplement (Gibco 17504-44). […] For live cell imaging, confocal images of hippocampal pyramidal neurons (excitatory, determined by morphology) in 0.24-0.3 μm Z sections were acquired using a 40×, 1.3 NA, EC Plan Neofluoar (whole cells) or a 100×, 1.4 NA Plan Apochromat oil immersion objective (dendrites) on a Yokogawa spinning disk system (Cell Observer, Carl Zeiss) at 37° C. in Tyrodes buffer (in mM: 119 NaCl, 5 KCl, 2 CaCl2, 0.2 MgCl2, Glucose, 25 Hepes, 0.01 Glycine, pH 7.4). […]

Compound | BDNF-induced protein synthesis of BDNF targets (BDNF targets) | total protein synthesis (35S incorporation) (cultured neurons) | P-body numbers in neuronal soma and dendrites [1]
Cc1c2oc3c(C)ccc(C(=O)N[C@@H]4C(=O)N[C@H](C(C)C)C(=O)N5CCC[C@H]5C(=O)N(C)CC(=O)N(C)[C@@H](C(C)C)C(=O)O[C@@H]4C)c3nc-2c(C(=O)N[C@@H]2C(=O)N[C@H](C(C)C)C(=O)N3CCC[C@H]3C(=O)N(C)CC(=O)N(C)[C@@H](C(C)C)C(=O)O[C@@H]2C)c(N)c1=O [Actinomycin-D] (I: T[dV]P[Sar][NMeV] / II: T[dV]P[Sar][NMeV]; ester I:1-I:C, II:1-II:C; linker I:N-II:N via Actinocin(9to1)) | does not alter BDNF-induced protein synthesis | – | –
CCn1cc(C(=O)O)c(=O)c2cc(F)c(N3CCNCC3)nc21 [Enoxacin, enoxacin] | – | did not alter basal or BDNF-induced total protein synthesis | rapidly and robustly increased P-body numbers
CCn1cc(C(=O)O)c(=O)c2cc3c(cc21)OCO3 [oxolinic acid] | – | does not alter total cellular protein synthesis | –
